From PubChem BioAssay (NCI)
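Protocol summary: plate cells (96-well), add compound at 5 concentrations, incubate 48 h, interpolate endpoints linearly. GI50 = concentration required for 50% inhibition of growth. The concentration for full growth arrest is given as TGI.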

Columns and labels:
Assay in all cases: DTP human tumour cell line panel, 48 h
786-0 renal = system: 786-0 renal
A498 renal = system: A498 renal
A549 NSCLC = system: A549 NSCLC
ACHN renal = system: ACHN renal
BT-549 breast = system: BT-549 breast
CAKI-1 renal = system: CAKI-1 renal
CCRF-CEM leukemia = system: CCRF-CEM leukemia
COLO 205 colon = system: COLO 205 colon
DU-145 prostate = system: DU-145 prostate
EKVX NSCLC = system: EKVX NSCLC
HCC-2998 colon = system: HCC-2998 colon
HCT-116 colon = system: HCT-116 colon
HCT-15 colon = system: HCT-15 colon
HL-60(TB) leukemia = system: HL-60(TB) leukemia
HOP-62 NSCLC = system: HOP-62 NSCLC
HOP-92 NSCLC = system: HOP-92 NSCLC
HS 578T breast = system: HS 578T breast
HT29 colon = system: HT29 colon
IGROV1 ovarian = system: IGROV1 ovarian
K-562 leukemia = system: K-562 leukemia
KM12 colon = system: KM12 colon
LOX IMVI melanoma = system: LOX IMVI melanoma
MALME-3M melanoma = system: MALME-3M melanoma
MDA-MB-231 breast = system: MDA-MB-231 breast
MDA-MB-435 = system: MDA-MB-435
MDA-N = system: MDA-N
MOLT-4 leukemia = system: MOLT-4 leukemia
NCI-H226 lung = system: NCI-H226 lung
NCI-H23 lung = system: NCI-H23 lung
NCI-H460 lung = system: NCI-H460 lung
NCI-H522 lung = system: NCI-H522 lung
NCI/ADR-RES ovarian = system: NCI/ADR-RES ovarian
OVCAR-3 ovarian = system: OVCAR-3 ovarian
OVCAR-4 ovarian = system: OVCAR-4 ovarian
OVCAR-5 ovarian = system: OVCAR-5 ovarian
OVCAR-8 ovarian = system: OVCAR-8 ovarian
PC-3 prostate = system: PC-3 prostate
RPMI-8226 leukemia = system: RPMI-8226 leukemia
RXF 393 renal = system: RXF 393 renal
SF-268 CNS = system: SF-268 CNS
SF-295 CNS = system: SF-295 CNS
SF-539 CNS = system: SF-539 CNS
SK-MEL-28 melanoma = system: SK-MEL-28 melanoma
SK-MEL-5 melanoma = system: SK-MEL-5 melanoma
SN12C renal = system: SN12C renal
SNB-19 CNS = system: SNB-19 CNS
SNB-75 CNS = system: SNB-75 CNS
SR leukemia = system: SR leukemia
SW-620 colon = system: SW-620 colon
TK-10 renal = system: TK-10 renal
U251 CNS = system: U251 CNS
UACC-257 melanoma = system: UACC-257 melanoma
UO-31 renal = system: UO-31 renal
M14 melanoma = system: M14 melanoma
MCF7 breast = system: MCF7 breast
SK-MEL-2 melanoma = system: SK-MEL-2 melanoma
SK-OV-3 ovarian = system: SK-OV-3 ovarian
UACC-62 melanoma = system: UACC-62 melanoma
T-47D breast = system: T-47D breast

## Oc1ccc([I+]c2ccccc2)cc1O
786-0 renal
  TGI: > 100 µM
A498 renal
  TGI: > 100 µM
A549 NSCLC
  TGI: 65.5 µM
ACHN renal
  TGI: > 100 µM
BT-549 breast
  TGI: > 100 µM
CAKI-1 renal
  TGI: > 100 µM
CCRF-CEM leukemia
  TGI: 60.4 µM
COLO 205 colon
  TGI: > 100 µM
DU-145 prostate
  TGI: > 100 µM
EKVX NSCLC
  TGI: > 100 µM
HCC-2998 colon
  TGI: 64.2 µM
HCT-116 colon
  TGI: > 100 µM
HCT-15 colon
  TGI: > 100 µM
HL-60(TB) leukemia
  TGI: 47.1 µM
HOP-62 NSCLC
  TGI: > 100 µM
HOP-92 NSCLC
  TGI: 28.9 µM
HS 578T breast
  TGI: > 100 µM
HT29 colon
  TGI: > 100 µM
IGROV1 ovarian
  TGI: > 100 µM
K-562 leukemia
  TGI: 54.3 µM
KM12 colon
  TGI: 70.7 µM
LOX IMVI melanoma
  TGI: > 100 µM
MALME-3M melanoma
  TGI: > 100 µM
MDA-MB-231 breast
  TGI: > 100 µM
MDA-MB-435
  TGI: 66.2 µM
MDA-N
  TGI: > 100 µM
MOLT-4 leukemia
  TGI: 85.3 µM
NCI-H226 lung
  TGI: > 100 µM
NCI-H23 lung
  TGI: > 100 µM
NCI-H460 lung
  TGI: > 100 µM
NCI-H522 lung
  TGI: > 100 µM
NCI/ADR-RES ovarian
  TGI: > 100 µM
OVCAR-3 ovarian
  TGI: > 100 µM
OVCAR-4 ovarian
  TGI: > 100 µM
OVCAR-5 ovarian
  TGI: > 100 µM
OVCAR-8 ovarian
  TGI: > 100 µM
PC-3 prostate
  TGI: 64.1 µM
RPMI-8226 leukemia
  TGI: 61.4 µM
RXF 393 renal
  TGI: > 100 µM
SF-268 CNS
  TGI: > 100 µM
SF-295 CNS
  TGI: > 100 µM
SF-539 CNS
  TGI: 91.2 µM
SK-MEL-28 melanoma
  TGI: > 100 µM
SK-MEL-5 melanoma
  TGI: > 100 µM
SN12C renal
  TGI: > 100 µM
SNB-19 CNS
  TGI: > 100 µM
SNB-75 CNS
  TGI: > 100 µM
SR leukemia
  TGI: > 100 µM
SW-620 colon
  TGI: 37.1 µM
TK-10 renal
  TGI: > 100 µM
U251 CNS
  TGI: > 100 µM
UACC-257 melanoma
  TGI: > 100 µM
UO-31 renal
  TGI: > 100 µM

## c1c[nH]c(-c2ccc(-c3ccc[nH]3)c3nsnc23)c1
786-0 renal
  TGI: > 67.6 µM
A498 renal
  TGI: > 100 µM
A549 NSCLC
  TGI: > 70 µM
ACHN renal
  TGI: > 86.8 µM
BT-549 breast
  TGI: > 100 µM
CAKI-1 renal
  TGI: > 100 µM
CCRF-CEM leukemia
  TGI: > 35.3 µM
COLO 205 colon
  TGI: > 65.9 µM
DU-145 prostate
  TGI: 98.3 µM
EKVX NSCLC
  TGI: > 58.4 µM
HCC-2998 colon
  TGI: > 100 µM
HCT-116 colon
  TGI: > 59.8 µM
HCT-15 colon
  TGI: > 76.8 µM
HL-60(TB) leukemia
  TGI: > 100 µM
HOP-62 NSCLC
  TGI: > 80.1 µM
HOP-92 NSCLC
  TGI: > 100 µM
HS 578T breast
  TGI: > 100 µM
HT29 colon
  TGI: > 37.8 µM
IGROV1 ovarian
  TGI: > 100 µM
K-562 leukemia
  TGI: > 49.1 µM
KM12 colon
  TGI: > 100 µM
LOX IMVI melanoma
  TGI: > 100 µM
M14 melanoma
  TGI: > 63 µM
MCF7 breast
  TGI: > 100 µM
MDA-MB-231 breast
  TGI: > 84.8 µM
MDA-MB-435
  TGI: > 70.9 µM
MDA-N
  TGI: > 100 µM
MOLT-4 leukemia
  TGI: > 45.8 µM
NCI-H226 lung
  TGI: > 100 µM
NCI-H23 lung
  TGI: 79.6 µM
NCI-H460 lung
  TGI: > 100 µM
NCI-H522 lung
  TGI: > 100 µM
NCI/ADR-RES ovarian
  TGI: > 93.2 µM
OVCAR-3 ovarian
  TGI: 95.4 µM
OVCAR-4 ovarian
  TGI: > 16.5 µM
OVCAR-5 ovarian
  TGI: > 96.1 µM
OVCAR-8 ovarian
  TGI: > 60.4 µM
PC-3 prostate
  TGI: > 100 µM
RPMI-8226 leukemia
  TGI: > 52.6 µM
RXF 393 renal
  TGI: > 66.8 µM
SF-268 CNS
  TGI: > 100 µM
SF-295 CNS
  TGI: > 100 µM
SF-539 CNS
  TGI: > 76.8 µM
SK-MEL-2 melanoma
  TGI: > 100 µM
SK-MEL-28 melanoma
  TGI: > 100 µM
SK-MEL-5 melanoma
  TGI: > 100 µM
SK-OV-3 ovarian
  TGI: > 100 µM
SN12C renal
  TGI: > 100 µM
SNB-19 CNS
  TGI: > 100 µM
SNB-75 CNS
  TGI: > 85.8 µM
SW-620 colon
  TGI: > 100 µM
TK-10 renal
  TGI: > 100 µM
U251 CNS
  TGI: > 66.5 µM
UACC-257 melanoma
  TGI: > 100 µM
UACC-62 melanoma
  TGI: > 100 µM
UO-31 renal
  TGI: > 74.7 µM

## Cc1cc2c(cc1Cl)SC(N(N(C)C)S(=O)(=O)c1ccc(Cl)cc1)=NS2(=O)=O
786-0 renal
  GI50: 34.8 µM
  TGI: > 100 µM
A498 renal
  GI50: 15.8 µM
  TGI: 37.6 µM
A549 NSCLC
  GI50: 20.3 µM
  TGI: > 100 µM
ACHN renal
  GI50: 32.1 µM
  TGI: > 100 µM
BT-549 breast
  GI50: 19.4 µM
  TGI: 48.7 µM
CAKI-1 renal
  GI50: 30.5 µM
  TGI: 66.6 µM
CCRF-CEM leukemia
  GI50: 3.29 µM
  TGI: > 100 µM
COLO 205 colon
  GI50: 44 µM
  TGI: > 100 µM
DU-145 prostate
  GI50: 27.8 µM
  TGI: 99.4 µM
EKVX NSCLC
  GI50: 26.6 µM
  TGI: 79.6 µM
HCC-2998 colon
  GI50: 17 µM
  TGI: 44.6 µM
HCT-116 colon
  GI50: 23.6 µM
  TGI: 71.1 µM
HCT-15 colon
  GI50: 25.9 µM
  TGI: > 100 µM
HL-60(TB) leukemia
  GI50: 35.2 µM
  TGI: 89.8 µM
HOP-62 NSCLC
  GI50: 29.6 µM
  TGI: 96.1 µM
HOP-92 NSCLC
  GI50: 14.8 µM
  TGI: 35.3 µM
HS 578T breast
  GI50: 23.4 µM
  TGI: 67.3 µM
HT29 colon
  GI50: 27.1 µM
  TGI: 99.2 µM
IGROV1 ovarian
  GI50: 31.8 µM
  TGI: > 100 µM
K-562 leukemia
  GI50: 31.8 µM
  TGI: > 100 µM
KM12 colon
  GI50: 22.9 µM
  TGI: > 100 µM
LOX IMVI melanoma
  GI50: 33.4 µM
  TGI: > 100 µM
M14 melanoma
  GI50: 27.8 µM
  TGI: > 100 µM
MALME-3M melanoma
  GI50: 22 µM
  TGI: 62 µM
MCF7 breast
  GI50: 12.6 µM
  TGI: 48.3 µM
MDA-MB-231 breast
  GI50: 22.5 µM
  TGI: 55 µM
MDA-MB-435
  GI50: 33.2 µM
  TGI: > 100 µM
MOLT-4 leukemia
  GI50: 35 µM
  TGI: > 100 µM
NCI-H226 lung
  GI50: 30.5 µM
  TGI: 89.9 µM
NCI-H23 lung
  GI50: 31.2 µM
  TGI: > 100 µM
NCI-H460 lung
  GI50: 16.9 µM
  TGI: 45.5 µM
NCI-H522 lung
  GI50: 11.1 µM
  TGI: 43.9 µM
NCI/ADR-RES ovarian
  GI50: 28 µM
  TGI: > 100 µM
OVCAR-3 ovarian
  GI50: 24 µM
  TGI: 61.6 µM
OVCAR-4 ovarian
  GI50: 23.4 µM
  TGI: 96.4 µM
OVCAR-5 ovarian
  GI50: 53.8 µM
  TGI: > 100 µM
OVCAR-8 ovarian
  GI50: 36.6 µM
  TGI: > 100 µM
PC-3 prostate
  GI50: 22.4 µM
  TGI: > 100 µM
RPMI-8226 leukemia
  GI50: 12.5 µM
  TGI: > 100 µM
RXF 393 renal
  GI50: 31.3 µM
  TGI: > 100 µM
SF-268 CNS
  GI50: 32.4 µM
  TGI: > 100 µM
SF-295 CNS
  GI50: 30.3 µM
  TGI: > 100 µM
SF-539 CNS
  GI50: 18.2 µM
  TGI: 45.8 µM
SK-MEL-2 melanoma
  GI50: 20.1 µM
  TGI: 66.6 µM
SK-MEL-28 melanoma
  GI50: 29.1 µM
  TGI: > 100 µM
SK-MEL-5 melanoma
  GI50: 15.4 µM
  TGI: 28.7 µM
SK-OV-3 ovarian
  GI50: 33.8 µM
  TGI: > 100 µM
SN12C renal
  GI50: 24.3 µM
  TGI: 72 µM
SNB-19 CNS
  GI50: 25.2 µM
  TGI: > 100 µM
SNB-75 CNS
  GI50: 36 µM
  TGI: 97.5 µM
SR leukemia
  GI50: 23.3 µM
  TGI: 91.7 µM
SW-620 colon
  GI50: 32.5 µM
  TGI: > 100 µM
T-47D breast
  GI50: 15.8 µM
  TGI: > 100 µM
TK-10 renal
  GI50: 43.9 µM
  TGI: > 100 µM
U251 CNS
  GI50: 26.3 µM
  TGI: > 100 µM
UACC-257 melanoma
  GI50: 23.8 µM
  TGI: 88.5 µM
UACC-62 melanoma
  GI50: 22 µM
  TGI: 56.1 µM
UO-31 renal
  GI50: 28.3 µM
  TGI: > 100 µM
